Measurements taken from publication PMC4207771, “Identification and Characterization of Novel Renal Sensory Receptors” (PLoS ONE, 2014).
Where two headings read alike, the source gives them in different places.

Experiments:
Olfr691 = target: T1, Olfr691 (Mus musculus, UniProt Q8VGW5); test: dual-luciferase (cAMP/CREB reporter) ligand screen, Olfr691 in HEK293T cells; format: cell-based; conditions: for Relative response (% of 4-pentenoate response) at 500 µM: HEK-293T, 4 h, 0.5 mM ligand, normalized to the response of Olfr691 to the strongest ligand
T1 construct: Lucy (N); expressed in transfected cells; host or cells: HEK293T, co-transfected with RTP1S
T1 sequence (Q8VGW5 1-322): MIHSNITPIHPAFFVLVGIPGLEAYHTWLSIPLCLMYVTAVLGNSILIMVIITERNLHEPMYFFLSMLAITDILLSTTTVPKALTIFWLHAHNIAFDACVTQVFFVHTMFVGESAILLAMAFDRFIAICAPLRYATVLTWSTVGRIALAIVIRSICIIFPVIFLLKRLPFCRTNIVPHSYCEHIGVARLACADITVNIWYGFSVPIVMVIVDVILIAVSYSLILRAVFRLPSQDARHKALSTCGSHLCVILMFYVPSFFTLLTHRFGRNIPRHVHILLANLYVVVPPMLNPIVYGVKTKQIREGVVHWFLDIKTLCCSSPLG

Olfr545 = test: dual-luciferase (cAMP/CREB reporter) ligand screen, Olfr545 in HEK293T cells; format: cell-based, mouse; set-up: key to Olfr545 response in dual-luciferase assay: ‘+’ or ‘–‘ in each column indicates if the olfactory receptor responded or had no effect to that specific chemical; -: ‘+’ or ‘–‘ in each column indicates if the olfactory receptor responded or had no effect to that specific chemical
Olfr99 = test: dual-luciferase (cAMP/CREB reporter) ligand screen, Olfr99 in HEK293T cells; format: cell-based, mouse; set-up: key: ‘+’ or ‘–‘ in each column indicates if the olfactory receptor responded or had no effect to that specific chemical; -: ‘+’ or ‘–‘ in each column indicates if the olfactory receptor responded or had no effect to that specific chemical
Olfr31 = target: T2, Olfr31 (Mus musculus, UniProt Q3KPA7); test: dual-luciferase (cAMP/CREB reporter) ligand screen, Olfr31 in HEK293T cells; format: cell-based
T2 construct: expressed in transfected cells; host or cells: HEK293T, co-transfected with RTP1S
T2 sequence (Q3KPA7 1-317): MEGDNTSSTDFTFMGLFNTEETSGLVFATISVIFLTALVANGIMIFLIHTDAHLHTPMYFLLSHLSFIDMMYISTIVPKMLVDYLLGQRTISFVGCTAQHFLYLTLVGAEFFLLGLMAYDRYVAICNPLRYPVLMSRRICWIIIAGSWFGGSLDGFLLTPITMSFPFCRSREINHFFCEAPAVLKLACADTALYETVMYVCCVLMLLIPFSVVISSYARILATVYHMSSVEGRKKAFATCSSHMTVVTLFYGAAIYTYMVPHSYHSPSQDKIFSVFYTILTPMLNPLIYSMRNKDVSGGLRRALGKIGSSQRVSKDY

Olfr693 = test: dual-luciferase (cAMP/CREB reporter) ligand screen, Olfr693 in HEK293T cells; format: cell-based, mouse; set-up: key: ‘+’ or ‘–‘ in each column indicates if the olfactory receptor responded or had no effect to that specific chemical; -: ‘+’ or ‘–‘ in each column indicates if the olfactory receptor responded or had no effect to that specific chemical
[1] = chemicals tested individually, screened at 500uM (* also at 100uM)

SMILES | Olfr691 response in dual-luciferase assay (Olfr691; [1]) | Olfr545 response in dual-luciferase assay (Olfr545; [1]) | Olfr99 response in dual-luciferase assay (Olfr99; [1]) | Olfr31 response in dual-luciferase assay (Olfr31; [1]) | Olfr693 response in dual-luciferase assay (Olfr693; [1]) | Olfr691 response in dual-luciferase assay (Olfr691) | Olfr545 response in dual-luciferase assay (Olfr545) | Olfr99 response in dual-luciferase assay (Olfr99) | Olfr31 response in dual-luciferase assay (Olfr31) | Olfr693 response in dual-luciferase assay (Olfr693) | Olfr691 response (in words) (Olfr691; luciferase assay, co-expressed with RTP1S) | Olfr691 response (in words) (Olfr691) | Relative response (% of 4-pentenoate response) at 500 µM (Olfr691) [%]
CCCCCOC(=O)CCCCC [Amylhexanoate] | - | - | - | - | - |  |  |  |  |  |  |  | 
COc1ccccc1 [Anisole] | - | - | - | - | - |  |  |  |  |  |  |  | 
CC12CCC(CC1=O)C2(C)C (centres unmarked) [Camphor] | - | - | - | - | - |  |  |  |  |  |  |  | 
C=C(C)C1CC=C(C)C(=O)C1 (centres unmarked) [Carvone] | - | - | - | - | - |  |  |  |  |  |  |  | 
O=C(O)C1CCCCC1 [Cyclohexanecarboxylic acid] | - | - | - | - | - |  |  |  |  |  |  |  | 
C[C@H](CCC(=O)O)[C@H]1CC[C@H]2[C@@H]3CC[C@@H]4C[C@H](O)CC[C@]4(C)[C@H]3C[C@H](O)[C@]12C [Deoxyxholic acid] | - | - | - | - | - |  |  |  |  |  |  |  | 
CC(C)=CCC/C(C)=C/CO [Geraniol] | - | - | - | - | - |  |  |  |  |  |  |  | 
CC(C)C=O [Isobutyraldehyde] | - | - | - | - | - |  |  |  |  |  |  |  | 
C=CC(C)(CCC=C(C)C)OC(C)=O (centres unmarked) [Linalyl acetate] | - | - | - | - | - |  |  |  |  |  |  |  | 
CC(C)(O)CCCC1=CCC(C=O)CC1 (centres unmarked) [Lyral] | - | - | - | - | - |  |  |  |  |  |  |  | 
O=C(O)CC(=O)O [Malonate] | - | - | - | - | - |  |  |  |  |  |  |  | 
O=C(O)C(=O)O [Oxalate] | - | - | - | - | - |  |  |  |  |  |  |  | 
CC(=O)C=O [Pyruvaldehyde] | - | - | - | - | - |  |  |  |  |  |  |  | 
[Na+].[Na+].[S-2] [Sodium Sulfide] |  |  |  |  |  | - | - | - | - | - |  |  | 
O=C(O)CCC(=O)O [Succinate] | - | - | - | - | - |  |  |  |  |  |  |  | 
C[N+](C)(C)[O-] [Trimethylamine N-oxide] | - | - | - | - | - |  |  |  |  |  |  |  | 

SMILES | Olfr691 response in dual-luciferase assay (Olfr691; [1]) | Olfr545 response in dual-luciferase assay (Olfr545; [1]) | Olfr99 response in dual-luciferase assay (Olfr99; [1]) | Olfr31 response in dual-luciferase assay (Olfr31; [1]) | Olfr693 response in dual-luciferase assay (Olfr693; [1]) | Olfr691 response in dual-luciferase assay (Olfr691) | Olfr545 response in dual-luciferase assay (Olfr545) | Olfr99 response in dual-luciferase assay (Olfr99) | Olfr31 response in dual-luciferase assay (Olfr31) | Olfr693 response in dual-luciferase assay (Olfr693) | Olfr691 response (in words) (Olfr691; luciferase assay, co-expressed with RTP1S) | Olfr691 response (in words) (Olfr691) | Relative response (% of 4-pentenoate response) at 500 µM (Olfr691) [%]
O=c1[nH]c(=O)c2[nH]c(=O)[nH]c2[nH]1 [Uric acid] | - | - | - | - | - |  |  |  |  |  |  |  | 
CC(=O)O [acetic acid] | - | - | - | - | - |  |  |  |  |  | not including |  | 
C=CCSCC=C [allyl sulfide] | - | - | - | - | - |  |  |  |  |  |  |  | 
CCCCCOC(C)=O [amyl acetate] | - | - | - | - | - |  |  |  |  |  |  |  | 
O=Cc1ccccc1 [benzaldehyde] | - | - | - | - | - |  |  |  |  |  |  |  | 
O=C(O)c1ccccc1 [benzoate] | + | - | - | - | - |  |  |  |  |  |  | induced Olfr691 responses | 34 ± 1
CCCC(=O)O [butyrate] | + | - | - | - | - |  |  |  |  |  |  |  | 55 ± 2.5
Cn1c(=O)c2c(ncn2C)n(C)c1=O [caffeine, reference compound] | - | - | - | - | - |  |  |  |  |  |  |  | 
CCCCCC(=O)O [caproate] | + | - | - | - | - |  |  |  |  |  |  |  | 80 ± 1.4
O=C/C=C/c1ccccc1 [cinnamaldehyde] | - | - | - | - | - |  |  |  |  |  |  |  | 
O=C(O)CC(O)(CC(=O)O)C(=O)O [citric acid] | - | - | - | - | - |  |  |  |  |  |  |  | 
C/C=C/C(=O)O [crotonic acid] | + | - | - | - | - |  |  |  |  |  |  |  | 39 ± 3
OC1CCCCCC1 [cycloheptanol] | - | - | - | - | - |  |  |  |  |  |  |  | 
O=C1CCCCC1 [cyclohexanone] | - | - | - | - | - |  |  |  |  |  |  |  | 
CCCCCCCCCCCC(=O)O [dodecanoic acid] | - | - | - | - | - |  |  |  |  |  |  |  | 
